Assay [1] relates to feline GPRC6A. The assay can be described thus: fGPRC6A calcium assay in HEK-293 T-REx/natClytin cells (FLIPR Tetra, Fluo-4 AM fluorescence). It counts as cell-based. The settings on record: for Activation of the fGPRC6A receptor (intracellular calcium response): ligand alone, K2.3 clone, doxycycline-induced, Fluo-4 AM read-out. Here is the method:
The HEK-293 […] cell line was stably transfected by electroporation. Briefly, 3×10^6 cells detached from 60% confluent flasks were transfected with 10 μg of DNA construct by using the Gene Pulser II electroporator (Biorad) (parameters: 300 Volts, 950 μF). […] Tetra system was used to measure fluorescence or luminescence. HEK293 cells that transiently or stably expressed the […] taste receptor, were exposed to compounds to determine whether the compounds modulated the activity of the […] receptor. In particular, […] cell line was used as recipient cell line and stable transfections were carried out using an inducible expression construct encoding for the feline GPRC6A in combination with the chimeric Ga protein Gaq[…]. Stable pools underwent a first limiting dilution (LD) and the best clones were chosen after stimulation with the reference ligand L-Arg+20 mM Mg^2+, using both a fluorescent and a luminescent read-out. Four selected first LD clones were subjected to a second round of LD; CPA was then performed in order to choose the best performing clones. On the basis of the functional data obtained at FLIPR® Tetra, the final K2.3 clone was chosen for the subsequent optimization steps. Fluorescence (Fluo-4 AM dye) was chosen as best read-out given its higher sensitivity in comparison to luminescence. In particular, cells were seeded at 7,500 cells/well and tested 48 h after seeding (Doxycycline was added at 1 μg/mL 24 h after seeding). Then, medium was removed, and cells were incubated with Fluo-4 AM dye (20 μL/well) for 1 h at 37° C. […]

Assay [2] relates to cats. Kind of assay: Cat feeding test (2-bottle choice test). It is filed as in vivo. The conditions noted are these: 0.15 mM L-ornithine hydrochloride in water vs plain water; 24 cats; 36 hours testing time.
Procedure: Cats were allowed access to water containing 0.15 mM L-ornithine hydrochloride and to plain water. The methodology used a 2-bottle choice test with 24 cats (the final number of cats for each test can vary due to data being discarded by spillage, etc.). Cats were housed individually during trial periods and had free access to water available between testing periods. The test involved a choice test between the tastant/mixture at a given concentration dissolved in deionized water versus deionized water only or another tastant/mixture. Control was made for positional bias (e.g., A/B exposure 1 and B/A exposure 2) and evaporation loss. The testing time was 36 hours (i.e., 18 hours per day, allowing a two-day crossover). Following two consecutive days of each testing, cats had two consecutive days of rest. Cats were offered a dry diet as a single meal at the start of the test period for one hour, calculated to meet the individual requirements for each cat.

These results are taken from patent US12161136B2, “Screening methods using GPRC6A taste receptors and pet food products and compositions prepared using the same” (MARS, INCORPORATED, priority 2018, dated 2024).

With `[Mg+2]` [magnesium ion], the “Modulation of the response to the tested L-alpha-amino acids” value in assay [1] (20 mM Mg2+ together with L-Arginine, L-Ornithine or L-Lysine) was “positive allosteric modulator”. For the same compound, in assay [1], the “Activation of the fGPRC6A receptor (intracellular calcium response)” value is recorded as “not activated”.

For the compound `Cl.NCCC[C@H](N)C(=O)O` [L-ornithine, L-ornithine hydrochloride], in assay [2], the “Average difference in intake versus plain water” value stood at 15.28 g.

Turning to `COc1cccc([C@@H](C)NCCCc2ccccc2Cl)c1` [NPS R-568], the “Activation of the fGPRC6A receptor (intracellular calcium response)” value in assay [1] is recorded as “not functional”.
